Source: patent US20170081338A1, “SUBSTITUTED HETEROARYL COMPOUNDS AND METHODS OF USE” (Sunshine Lake Pharma Co., Ltd., priority 2015, published 2017)

Tests used:
[1] = Compound stability in rat liver microsomes; type: in vitro ADME; conditions: pH 7.4; for half-life at 5 μM: rat liver microsomes 0.5 mg protein/mL, compound 5 μM, NADPH, 37° C., read-out: Rat T1/2; for CLint scaled at 5 μM: rat liver microsomes, in vivo CLint extrapolated
Experimental: (§1) Human or rat liver microsomes incubations were conducted in duplicate in polypropylene tubes. The typical incubation mixtures consisted of human or rat liver microsomes (0.5 mg protein/mL), compounds of interest (5 μM) and NADPH (1.0 mM) in a total volume of 200 μL potassium phosphate buffer (PBS, 100 mM, pH 7.4). Compounds were dissolved in DMSO and diluted with PBS such that the final concentration of DMSO was 0.05%. The enzymatic reactions were commenced with the addition of protein after a 3-min preincubation and incubated in a water bath open to the air at 37° C. Reactions were terminated at various time points (0, 5, 10, 15, 30, 60 min) by adding equal volume of ice-cold acetonitrile. The samples were stored at −80° C. until LC/MS/MS assays.
(§2) The concentrations of compounds in the incubation mixtures of human or rat liver microsomes were determined by a LC/MS/MS method. The ranges of the linearity in the concentration range were determined for each tested compounds.
(§3) A parallel incubation was performed using denatured microsomes as the negative control, and reactions were terminated at various time points (0, 15, 60 min) after incubation at 37° C.
(§4) Dextromethorphan (70 μM) was selected as the positive control, and reactions were terminated at various time points (0, 5, 10, 15, 30, 60 min) after incubation at 37° C. Both positive and negative control samples were included in each assay to ensure the integrity of the microsomal incubation system.
(§5) The concentrations of compounds in human or rat liver microsome incubations were plotted as a percentage of the relevant zero time point control for each reaction. The in vivo CLint were extrapolated (ref.: Naritomi, Y.; Terashita, S.; Kimura, S.; Suzuki, A.; Kagayama, A.; and Sugiyama, Y.; Prediction of human hepatic clearance from in vivo animal experiments and in vitro metabolic studies with liver microsomes from animals and humans. Drug Metab. Dispos., 2001, 29: 1316-1324).

[2] = Pharmacokinetics after intravenous and oral administration in rats; type: in vivo; conditions: for Clearance (CL) after iv dosing / AUC(0-t) / half-life / Vd: dose 1 mg/kg, iv dosing; for F: oral bioavailability; for AUC(0-t) / half-life / Vd: rat, plasma; for Vd: read-out: Vss
Experimental: The LC/MS/MS system used in the analysis consists of an Agilent 1200 Series vacuum degasser, binary pump, well-plate autosampler, thermostatted column compartment, the Agilent G6430 Triple Quadrupole Mass Spectrometer with an electrosprayionization (ESI) source. Quantitative analysis was carried out using MRM mode. The parameters for MRM transitions are in the Table A.
An Agilent XDB-C18, 2.1×30 mm, 3.5 μM column was used for the analysis. 5 μL of the samples were injected. Analysis condition: The mobile phase was 0.1% formic acid in water (A) and 0.1% formic acid in methanol (B). The flow rate was 0.4 mL/min. And the gradient of Mobile phase was in the Table B.
Alternatively, an Agilent 6330 series LC/MS/MS spectrometer equipped with G1312A binary pumps, a G1367A autosampler and a G1314C UV detector were used in the analysis. An ESI source was used on the LC/MS/MS spectrometer. The analysis was done in positive ion mode as appropriate and the MRM transition for each analyte was optimized using standard solution. A Capcell MP-C18 100×4.6 mm I.D., […] column (Phenomenex, Torrance, Calif., USA) was used during the analysis. The mobile phase was 5 mM ammonia acetate, 0.1% MeOH in water (A): 5 mM ammonia acetate, 0.1% MeOH in acetonitrile (B) (70/30, v/v). The flow rate was 0.6 mL/min. Column was maintained at ambient temperature. 20 μL of the samples were injected.
The compounds disclosed herein are assessed in pharmacokinetic studies in mice, rats, dogs or monkeys. The compounds are administered as a water solution, 2% HPMC+1% TWEEN®80 in water solution, 5% DMSO+5% solutol in saline, 4% MC suspension or capsule. For the intravenous administration, the animals are generally given at 0.5, 1 or 2 mg/kg dose. For the oral (p.o.) dosing, mice and rats are generally given 0.5, 1, 5 or 10 mg/kg dose, and dogs and monkeys are generally given 10 mg/kg dose. The blood samples (0.3 mL) are drawn at 0.25, 0.5, 1.0, 2.0, 3.0, 4.0, 6.0, 8.0, 12 and 24 h time points or 0.083, 0.25, 0.5, 1.0, 2.0, 4.0, 6.0, 8.0 and 24 h time points and centrifuged at 3,000 or 4000 rpm for 2 to 10 min. The plasma solutions are collected, and stored at −20° C. or −70° C. until analyzed by LC/MS/MS as described above.

[3] = Compound stability in human liver microsomes; type: in vitro ADME; conditions: pH 7.4; for half-life at 5 μM: human liver microsomes 0.5 mg protein/mL, compound 5 μM, NADPH, 37° C., read-out: Human T1/2; for CLint scaled at 5 μM: human liver microsomes, in vivo CLint extrapolated
Experimental: as §1, §2, §3, §4, §5

Row | SMILES | half-life at 5 μM [1] [min] | CLint scaled at 5 μM [1] [mL/min/kg] | Clearance (CL) after iv dosing [2] [mL/min/kg] | F [2] [%] | AUC(0-t) [2] [ng·h/mL] | half-life [2] [min] | Vd [2] [L/kg] | half-life at 5 μM [3] [min] | CLint scaled at 5 μM [3] [mL/min/kg]
1 | Cn1cc(Nc2ncc(Cl)c(N[C@@H]3COC4C3OC[C@@H]4Nc3ccc(C#N)cn3)n2)cn1 (stereo partly drawn) [Ex. 23, 6-(((3S,6R)-6-((5-chloro-2-((1-methyl-1H-pyrazol-4-yl)amino)pyrimidin-4-yl)amino)hexahydrofuro[3,2-b]furan-3-yl)amino)nicotinonitrile] | 26.6 | 93.4 | 7 | 67.5 | 2440 | 27 | 0.26 | 60 | 29
2 | CNC(=O)N[C@H]1COC2C1OC[C@H]2Nc1nc(Nc2cnn(C)c2)ncc1Cl (stereo partly drawn) [Ex. 1, 1-((3S,6R)-6-((5-chloro-2-((1-methyl-1H-pyrazol-4-yl)amino)pyrimidin-4-yl)amino)hexahydrofuro[3,2-b]furan-3-yl)-3-methylurea] | 116 | 21.4 | 42 | 52.4 | 398 | 13.8 | 0.55 |  | 
3 | CC(C)=CS(=O)(=O)N[C@H]1COC2C1OC[C@H]2Nc1nc(Nc2cnn(C)c2)ncc1Cl (stereo partly drawn) [Ex. 43, N-((3S,6R)-6-((5-chloro-2-((1-methyl-1H-pyrazol-4-yl)amino)pyrimidin-4-yl)amino)hexahydrofuro[3,2-b]furan-3-yl)-2-methylprop-1-ene-1-sulfonamide] | 25.7 | 96.5 | 35 | 57.1 | 479 | 47.4 | 1.75 | 22.9 | 76
4 | Cn1cc(Nc2ncc(Cl)c(N[C@@H]3COC4C3OC[C@@H]4N3CCCS3(=O)=O)n2)cn1 (stereo partly drawn) [Ex. 12, 2-((3S,6R)-6-((5-chloro-2-((1-methyl-1H-pyrazol-4-yl)amino)pyrimidin-4-yl)amino)hexahydrofuro[3,2-b]furan-3-yl)isothiazolidine 1,1-dioxide] | 105 | 23.7 | 59.8 | 75.2 | 363 | 40.2 | 1.98 | 272 | 6.39
5 | Cn1cc(Nc2ncc(Cl)c(N[C@@H]3COC4C3OC[C@@H]4NS(=O)(=O)N3CCOCC3)n2)cn1 (stereo partly drawn) [Ex. 11, N-((3S,6R)-6-((5-chloro-2-((1-methyl-1H-pyrazol-4-yl)amino)pyrimidin-4-yl)amino)hexahydrofuro[3,2-b]furan-3-yl)morpholine-4-sulfonamide] | 121 | 20.6 |  | 40.0 | 542 | 335 | 23.5 | 44.1 | 39.4
6 | O=S(=O)(CC1CC1)N[C@H]1COC2C1OC[C@H]2Nc1nc(Nc2cnn(C3CCNCC3)c2)ncc1Cl (stereo partly drawn) [Ex. 35, N-((3S,6R)-6-((5-chloro-2-((1-(piperidin-4-yl)-1H-pyrazol-4-yl)amino)pyrimidin-4-yl)amino)hexahydrofuro[3,2-b]furan-3-yl)-1-cyclopropylmethanesulfonamide] | 441 | 5.6 |  |  |  |  |  | 51.1 | 34
7 | Cn1cc(Nc2ncc(Cl)c(N[C@@H]3COC4C3OC[C@@H]4N3CCOC3=O)n2)cn1 (stereo partly drawn) [Ex. 9, 3-((3S,6R)-6-((5-chloro-2-((1-methyl-1H-pyrazol-4-yl)amino)pyrimidin-4-yl)amino)hexahydrofuro[3,2-b]furan-3-yl)oxazolidin-2-one] |  |  |  | 64.6 | 792 | 636 | 27.1 |  | 

Next, values leading:

Row | half-life at 5 μM [1] [min] | CLint scaled at 5 μM [1] [mL/min/kg] | Clearance (CL) after iv dosing [2] [mL/min/kg] | F [2] [%] | AUC(0-t) [2] [ng·h/mL] | half-life [2] [min] | Vd [2] [L/kg] | half-life at 5 μM [3] [min] | CLint scaled at 5 μM [3] [mL/min/kg] | SMILES
8 | 19.7 | 126 | 30.3 | 77.3 | 533 | 31.2 | 1.22 | 25.2 | 69 | CC(CS(=O)(=O)N[C@H]1COC2C1OC[C@H]2Nc1nc(Nc2cnn(C)c2)ncc1Cl)C(F)(F)F (stereo partly drawn) [Ex. 40, N-((3S,6R)-6-((5-chloro-2-((1-methyl-1H-pyrazol-4-yl)amino)pyrimidin-4-yl)amino)hexahydrofuro[3,2-b]furan-3-yl)-3,33-trifluoro-2-methylpropane-1-sulfonamide]
9 |  |  | 35.8 | 48.7 | 464 | 33 | 1.07 |  |  | Cn1cc(Nc2ncc(Cl)c(N[C@@H]3COC4C3OC[C@@H]4NS(=O)(=O)CC3CC(F)C3)n2)cn1 (stereo partly drawn) [Ex. 39, N-((3S,6R)-6-((5-chloro-2-((1-methyl-1H-pyrazol-4-yl)amino)pyrimidin-4-yl)amino)hexahydrofuro[3,2-b]furan-3-yl)-1-(3-fluorocyclobutyl)methanesulfonamide]
10 | 34.9 | 71.1 | 34.2 | 69.5 | 491 | 32.4 | 0.86 | 26.6 | 65.5 | CC(CF)CS(=O)(=O)N[C@H]1COC2C1OC[C@H]2Nc1nc(Nc2cnn(C)c2)ncc1Cl (stereo partly drawn) [Ex. 37, N-((3S,6R)-6-((5-chloro-2-((1-methyl-1H-pyrazol-4-yl)amino)pyrimidin-4-yl)amino)hexahydrofuro[3,2-b]furan-3-yl)-3-fluoro-2-methylpropane-1-sulfonamide]
11 | 47.7 | 52.1 | 17 | 106.6 | 982 | 32.4 | 0.69 | 65.6 | 26.5 | Cn1cc(Nc2ncc(Cl)c(N[C@@H]3COC4C3OC[C@@H]4NS(=O)(=O)CC(C)(F)F)n2)cn1 (stereo partly drawn) [Ex. 38, N-((3S,6R)-6-((5-chloro-2-((1-methyl-1H-pyrazol-4-yl)amino)pyrimidin-4-yl)amino)hexahydrofuro[3,2-b]furan-3-yl)-2,2-difluoropropane-1-sulfonamide]
12 | 310 | 8 |  |  |  |  |  | 837 | 2.1 | CC(O)CS(=O)(=O)N[C@H]1COC2C1OC[C@H]2Nc1nc(Nc2cnn(C)c2)ncc1Cl (stereo partly drawn) [Ex. 44, N-((3S,6R)-6-((5-chloro-2-((1-methyl-1H-pyrazol-4-yl)amino)pyrimidin-4-yl)amino)hexahydrofuro[3,2-b]furan-3-yl)-2-hydroxypropane-1-sulfonamide]
